Source: patent US12686673B2 (Blueprint Medicines Corporation, priority 2020, dated 2026)
Structures can show the parent of a compound that is named as a salt. Where two headings read alike, the source gives them in different places.

Assays:
Assay type in all cases: cell-based
[1] = molecular target: EGFR(D770_N771insSVD) expressing Ba/F3 stable cell line (Homo sapiens, UniProt P00533, DUP768-770, cells depend on it); test: Cellular proliferation (Alamar Blue) assay, EGFR D770_N771insSVD Ba/F3; conditions: 72 hr, read-out: D770 IC50
Sequence of EGFR(D770_N771insSVD) expressing Ba/F3 stable cell line (P00533 with tags, fused parts or gaps DUP768-770): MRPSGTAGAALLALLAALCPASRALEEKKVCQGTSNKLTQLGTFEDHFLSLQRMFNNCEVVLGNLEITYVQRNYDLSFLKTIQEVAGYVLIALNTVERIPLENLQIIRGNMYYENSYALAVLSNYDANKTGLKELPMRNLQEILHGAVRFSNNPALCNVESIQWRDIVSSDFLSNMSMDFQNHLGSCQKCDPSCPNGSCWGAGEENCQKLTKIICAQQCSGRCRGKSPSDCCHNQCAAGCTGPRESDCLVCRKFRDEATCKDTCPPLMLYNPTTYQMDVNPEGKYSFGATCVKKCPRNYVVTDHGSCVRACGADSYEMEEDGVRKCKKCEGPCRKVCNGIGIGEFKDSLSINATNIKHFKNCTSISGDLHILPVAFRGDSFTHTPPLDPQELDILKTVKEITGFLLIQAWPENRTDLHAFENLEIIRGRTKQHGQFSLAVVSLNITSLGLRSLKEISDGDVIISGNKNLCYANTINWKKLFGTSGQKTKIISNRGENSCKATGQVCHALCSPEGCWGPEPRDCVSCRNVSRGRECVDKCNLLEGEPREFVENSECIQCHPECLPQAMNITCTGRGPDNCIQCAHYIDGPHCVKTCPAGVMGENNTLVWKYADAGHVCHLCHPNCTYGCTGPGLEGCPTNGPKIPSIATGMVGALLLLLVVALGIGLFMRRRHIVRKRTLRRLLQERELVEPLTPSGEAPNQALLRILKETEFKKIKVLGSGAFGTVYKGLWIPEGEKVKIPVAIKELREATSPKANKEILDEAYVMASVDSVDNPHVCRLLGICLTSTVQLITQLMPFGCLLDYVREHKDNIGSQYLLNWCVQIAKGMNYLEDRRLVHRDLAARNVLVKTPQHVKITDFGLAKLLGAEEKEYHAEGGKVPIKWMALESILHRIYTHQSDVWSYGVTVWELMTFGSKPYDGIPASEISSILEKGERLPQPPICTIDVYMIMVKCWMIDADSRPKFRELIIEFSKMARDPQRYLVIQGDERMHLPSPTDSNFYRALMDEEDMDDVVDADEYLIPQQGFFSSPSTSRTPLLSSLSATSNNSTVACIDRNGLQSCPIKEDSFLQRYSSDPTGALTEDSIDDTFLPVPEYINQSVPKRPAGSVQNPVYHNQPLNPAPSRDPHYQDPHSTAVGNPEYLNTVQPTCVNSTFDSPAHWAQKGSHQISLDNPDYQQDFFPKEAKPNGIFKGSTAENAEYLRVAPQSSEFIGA
Method in brief: (§1)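 Proliferation of mutant-dependent Ba/F3 lines is measured by Alamar Blue reduction over 3 hours, following a 72 hr incubation with test compound spanning 10-0.0005 μM final in threefold dilutions. Cells go in at 15,000 per well in RPMI containing 10% FBS the day before dosing.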

[2] = molecular target: EGFR (A767_dupASV) expressing Ba/F3 stable cell line (Homo sapiens, UniProt P00533, DUP767-769, cells depend on it); test: Cellular proliferation (Alamar Blue) assay, EGFR A767_dupASV Ba/F3; conditions: 72 hr, read-out: A767 IC50
Sequence of EGFR (A767_dupASV) expressing Ba/F3 stable cell line (P00533 with tags, fused parts or gaps DUP767-769): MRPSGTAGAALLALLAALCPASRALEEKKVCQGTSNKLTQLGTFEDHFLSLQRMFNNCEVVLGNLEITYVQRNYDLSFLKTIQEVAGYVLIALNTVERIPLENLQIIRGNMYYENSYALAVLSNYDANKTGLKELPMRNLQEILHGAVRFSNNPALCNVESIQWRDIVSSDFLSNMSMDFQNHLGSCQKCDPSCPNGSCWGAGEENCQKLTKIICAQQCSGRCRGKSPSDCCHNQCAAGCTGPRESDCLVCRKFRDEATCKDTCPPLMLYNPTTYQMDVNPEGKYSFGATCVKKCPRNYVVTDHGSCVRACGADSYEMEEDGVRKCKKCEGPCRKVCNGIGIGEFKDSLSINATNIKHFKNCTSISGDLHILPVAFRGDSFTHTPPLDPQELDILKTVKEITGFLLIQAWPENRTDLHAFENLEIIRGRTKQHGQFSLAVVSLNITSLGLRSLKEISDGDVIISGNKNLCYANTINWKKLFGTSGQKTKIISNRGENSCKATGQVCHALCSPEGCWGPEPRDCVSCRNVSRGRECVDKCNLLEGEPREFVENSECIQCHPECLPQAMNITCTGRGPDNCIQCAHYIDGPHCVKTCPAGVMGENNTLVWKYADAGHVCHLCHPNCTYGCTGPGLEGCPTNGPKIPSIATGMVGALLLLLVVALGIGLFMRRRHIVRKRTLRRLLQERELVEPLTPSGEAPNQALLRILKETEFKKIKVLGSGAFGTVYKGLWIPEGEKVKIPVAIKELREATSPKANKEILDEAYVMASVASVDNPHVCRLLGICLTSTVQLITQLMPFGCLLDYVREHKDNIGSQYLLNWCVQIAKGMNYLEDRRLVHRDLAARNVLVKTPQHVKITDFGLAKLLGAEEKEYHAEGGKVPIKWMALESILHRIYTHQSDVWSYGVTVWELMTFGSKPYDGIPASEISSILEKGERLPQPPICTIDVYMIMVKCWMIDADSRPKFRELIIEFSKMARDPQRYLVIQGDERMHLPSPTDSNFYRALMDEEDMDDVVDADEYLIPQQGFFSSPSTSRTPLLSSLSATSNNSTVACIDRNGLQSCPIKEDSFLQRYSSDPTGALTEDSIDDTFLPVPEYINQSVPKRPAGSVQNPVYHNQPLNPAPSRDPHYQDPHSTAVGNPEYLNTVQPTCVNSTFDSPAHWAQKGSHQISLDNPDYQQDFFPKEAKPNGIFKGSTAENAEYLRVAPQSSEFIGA
Method in brief: as §1

[3] = molecular target: HER2 (A775_G776insYVMA) expressing Ba/F3 stable cell line (Homo sapiens, UniProt P04626, DUP772-775, cells depend on it); test: Cellular proliferation (Alamar Blue) assay, HER2 A775_G776insYVMA Ba/F3; conditions: 72 hr, read-out: YVMA IC50
Sequence of HER2 (A775_G776insYVMA) expressing Ba/F3 stable cell line (P04626 with tags, fused parts or gaps DUP772-775): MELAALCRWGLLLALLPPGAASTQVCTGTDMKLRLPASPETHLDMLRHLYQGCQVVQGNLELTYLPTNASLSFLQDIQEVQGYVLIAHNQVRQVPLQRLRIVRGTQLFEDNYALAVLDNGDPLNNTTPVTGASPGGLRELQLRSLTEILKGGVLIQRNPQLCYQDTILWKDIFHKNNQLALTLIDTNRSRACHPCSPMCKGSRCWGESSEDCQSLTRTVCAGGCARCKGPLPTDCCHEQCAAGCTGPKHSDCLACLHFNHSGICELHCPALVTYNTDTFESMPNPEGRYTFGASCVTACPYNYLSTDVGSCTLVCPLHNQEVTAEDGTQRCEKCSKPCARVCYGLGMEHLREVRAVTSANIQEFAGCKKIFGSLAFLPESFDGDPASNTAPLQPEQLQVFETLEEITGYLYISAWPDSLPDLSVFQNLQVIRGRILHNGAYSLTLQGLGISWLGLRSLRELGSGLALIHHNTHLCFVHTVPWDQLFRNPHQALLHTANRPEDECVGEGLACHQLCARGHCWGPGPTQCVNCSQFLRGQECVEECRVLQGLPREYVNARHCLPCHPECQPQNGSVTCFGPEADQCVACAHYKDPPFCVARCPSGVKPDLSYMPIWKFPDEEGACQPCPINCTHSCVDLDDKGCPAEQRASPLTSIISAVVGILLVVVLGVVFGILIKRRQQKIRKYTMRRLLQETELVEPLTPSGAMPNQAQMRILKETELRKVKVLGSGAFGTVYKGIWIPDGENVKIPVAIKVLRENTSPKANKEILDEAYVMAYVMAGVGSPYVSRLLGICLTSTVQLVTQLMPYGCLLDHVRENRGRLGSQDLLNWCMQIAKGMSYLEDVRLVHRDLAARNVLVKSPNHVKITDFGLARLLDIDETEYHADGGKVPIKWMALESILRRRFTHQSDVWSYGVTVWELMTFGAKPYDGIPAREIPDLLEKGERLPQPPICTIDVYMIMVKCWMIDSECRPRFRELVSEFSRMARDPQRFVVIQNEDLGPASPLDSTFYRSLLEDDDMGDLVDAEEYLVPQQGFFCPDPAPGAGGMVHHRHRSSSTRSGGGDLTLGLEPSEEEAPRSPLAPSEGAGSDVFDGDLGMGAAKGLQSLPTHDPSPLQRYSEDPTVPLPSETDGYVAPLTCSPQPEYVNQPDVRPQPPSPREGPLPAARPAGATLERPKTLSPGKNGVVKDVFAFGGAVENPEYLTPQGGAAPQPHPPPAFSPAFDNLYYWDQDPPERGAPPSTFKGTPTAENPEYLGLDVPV
Method in brief: as §1

A431 cells = test: Cellular proliferation (Alamar Blue) assay, A431
[4] = Homo sapiens, A-431; A431 cells, Alamar Blue, 72 hr; read-out: A431 IC50

| Compound | GI50 [1] [nM] | GI50 [2] [nM] | GI50 [3] [nM] | IC50 (A431 cells; [4]) [nM] | IC50 (A431 cells; Homo sapiens, A-431; A431 cells, 72 hr, Alamar Blue; read-out: A431 IC50) [nM] |
| --- | --- | --- | --- | --- | --- |
| C=CC(=O)Nc1ccc(F)c(Nc2nc(Nc3cnn(C)c3)ncc2-c2ccn3ccnc3c2)c1 [Compound 132, N-(4-fluoro-3-((5-(imidazo[1,2-a]pyridin-7-yl)-2-((1-methyl-1H-pyrazol-4-yl)amino)pyrimidin-4-yl)amino)phenyl)acrylamide] | 203 | 368 | 151 | 504 | – |
| C=CC(=O)Nc1ccc(F)c(Nc2nc(Nc3cnn(C)c3)ncc2-c2cccc3ccccc23)c1 [Compound 136, N-(4-fluoro-3-((2-((1-methyl-1H-pyrazol-4-yl)amino)-5-(naphthalen-1-yl)pyrimidin-4-yl)amino)phenyl)acrylamide trifluoroacetate] | 106 | 299 | 412 | 40 | – |
| C=CC(=O)Nc1ccc(F)c(Nc2nc(Nc3cn(C)nc3C(F)(F)F)ncc2-c2ccc(C(F)(F)F)cc2)c1 [Compound 146, N-(4-fluoro-3-((2-((1-methyl-3-(trifluoromethyl)-1H-pyrazol-4-yl)amino)-5-(4-(trifluoromethyl)phenyl)pyrimidin-4-yl)amino)phenyl)acrylamide trifluoroacetate] | 342 | 279 | 6130 | 274 | – |
| C=CC(=O)Nc1ccc(F)c(Nc2nc(Nc3cnn(C)c3)ncc2-c2ccc3ccccc3c2)c1 [Compound 149, N-(4-fluoro-3-((2-((1-methyl-1H-pyrazol-4-yl)amino)-5-(naphthalen-2-yl)pyrimidin-4-yl)amino)phenyl)acrylamide trifluoroacetate] | 308 | 747 | 501 | 469 | – |
| CN(C)C/C=C/C(=O)Nc1ccc(F)c(-c2nc(Nc3cnn(C)c3)ncc2Cl)c1 [Compound 160, (E)-N-(3-(5-chloro-2-((1-methyl-1H-pyrazol-4-yl)amino)pyrimidin-4-yl)-4-fluorophenyl)-4-(dimethylamino)but-2-enamide] | > 10000 | > 10000 | > 10000 | > 10000 | – |
| C=CC(=O)Nc1ccc(F)c(Nc2nc(Nc3cnn(C)c3)ncc2C#Cc2ccccc2)c1 [Compound 161, N-[4-fluoro-3-({2-[(1-methyl-1H-pyrazol-4-yl)amino]-5-(2-phenylethynyl)pyrimidin-4-yl}amino)phenyl]prop-2-enamide] | 288 | 289 | 897 | > 10000 | – |
| CN(C)C/C=C/C(=O)Nc1ccc(F)c(Nc2nc(Nc3cnn(C)c3)ncc2C#Cc2ccccc2)c1 [Compound 162, (E)-4-(dimethylamino)-N-(4-fluoro-3-((2-((1-methyl-1H-pyrazol-4-yl)amino)-5-(phenylethynyl)pyrimidin-4-yl)amino)phenyl)but-2-enamide] | 1850 | 656 | 1880 | 2850 | – |
| C=CC(=O)Nc1ccc(F)c(Oc2nc(Nc3cnn(CCO)c3)ncc2Cl)c1 [Compound 167, N-(3-((5-chloro-2-((1-(2-hydroxyethyl)-1H-pyrazol-4-yl)amino)pyrimidin-4-yl)oxy)-4-fluorophenyl)acrylamide] | 2150 | 1330 | 1750 | > 10000 | – |
| C=CC(=O)Nc1ccc(F)c(Oc2nc(Nc3cnn(C4CCN(C)CC4)c3)ncc2Cl)c1 [Compound 168, N-(3-((5-chloro-2-((1-(1-methylpiperidin-4-yl)-1H-pyrazol-4-yl)amino)pyrimidin-4-yl)oxy)-4-fluorophenyl)acrylamide] | 929 | 904 | 2260 | > 10000 | – |
| C=CC(=O)Nc1ccc(OC)c(Oc2nc(Nc3cnn(C4CCN(C)CC4)c3)ncc2Cl)c1 [Compound 170, N-(3-((5-chloro-2-((1-(1-methylpiperidin-4-yl)-1H-pyrazol-4-yl)amino)pyrimidin-4-yl)oxy)-4-methoxyphenyl)acrylamide] | > 10000 | > 10000 | 9710 | > 10000 | – |
| CN(C)C/C=C/C(=O)Nc1ccc(C#Cc2ccccc2)c(Nc2nc(Nc3cnn(C)c3)ncc2Cl)c1 [Compound 179, (E)-N-(3-((5-chloro-2-((1-methyl-1H-pyrazol-4-yl)amino)pyrimidin-4-yl)amino)-4-(phenylethynyl)phenyl)-4-(dimethylamino)but-2-enamide] | > 10000 | > 10000 | 4030 | > 10000 | – |

Continued, values first:

| GI50 [1] [nM] | GI50 [2] [nM] | GI50 [3] [nM] | IC50 (A431 cells; [4]) [nM] | IC50 (A431 cells; Homo sapiens, A-431; A431 cells, 72 hr, Alamar Blue; read-out: A431 IC50) [nM] | Compound |
| --- | --- | --- | --- | --- | --- |
| 254 | 325 | 751 | > 10000 | – | C=CC(=O)Nc1ccc(F)c(Nc2nc(Nc3cnn(C)c3)ncc2-c2ccncc2)c1 [Compound 137, N-(4-fluoro-3-((2-((1-methyl-1H-pyrazol-4-yl)amino)-5-(pyridin-4-yl)pyrimidin-4-yl)amino)phenyl)acrylamide] |
| 1890 | 2440 | 1520 | 8020 | – | C=CC(=O)Nc1cccc(Nc2nc(Nc3cnn(C)c3)nnc2Cl)c1 [Compound 156, N-(3-((6-chloro-3-((1-methyl-1H-pyrazol-4-yl)amino)-1,2,4-triazin-5-yl)amino)phenyl)acrylamide] |
| > 10000 | > 10000 | 3660 | > 10000 | – | C=CC(=O)Nc1cccc(Oc2nc(Nc3cnn(C)c3)nnc2Cl)c1 [Compound 157, N-(3-((6-chloro-3-((1-methyl-1H-pyrazol-4-yl)amino)-1,2,4-triazin-5-yl)oxy)phenyl)acrylamide] |
| > 10000 | > 10000 | > 10000 | > 10000 | – | C=CC(=O)Nc1cccc(Oc2nc(Nc3cnn(C)c3)cnc2C)c1 [Compound 158, N-(3-((3-methyl-6-((1-methyl-1H-pyrazol-4-yl)amino)pyrazin-2-yl)oxy)phenyl)acrylamide] |
| 9550 | 2780 | > 10000 | > 10000 | – | C=CC(=O)Nc1ccc(F)c(-c2nc(Nc3cnn(C)c3)ncc2Cl)c1 [Compound 159, N-(3-{5-chloro-2-[(1-methyl-1H-pyrazol-4-yl)amino]pyrimidin-4-yl}-4-fluorophenyl)prop-2-enamide] |
| > 10000 | > 10000 | 9490 | > 10000 | – | C=CC(=O)Nc1ccc(C(=O)Nc2ccccc2)c(Nc2ccnc(Nc3cnn(C)c3)n2)c1 [Compound 164, 4-acrylamido-2-((2-((1-methyl-1H-pyrazol-4-yl)amino)pyrimidin-4-yl)amino)-N-phenylbenzamide] |
| > 10000 | > 10000 | 9930 | > 10000 | – | C=CC(=O)Nc1ccc(Cl)c(Nc2ccnc(Nc3cnn(C)c3)n2)c1 [Compound 165, N4-(5-amino-2-chlorophenyl)-N2-(1-methyl-1H-pyrazol-4-yl)pyrimidine-2,4-diamineprop-2-enoyl chloride] |
| 1320 | 1250 | 1690 | > 10000 | – | C=CC(=O)Nc1ccc(F)c(Oc2nc(Nc3cnn(C)c3)ncc2Cl)c1 [Compound 166, N-(3-((5-chloro-2-((1-methyl-1H-pyrazol-4-yl)amino)pyrimidin-4-yl)oxy)-4-fluorophenyl)acrylamide] |
| > 10000 | > 10000 | > 10000 | > 10000 | – | C=CC(=O)Nc1ccc(OC)c(Oc2nc(Nc3cnn(C)c3)ncc2Cl)c1 [Compound 172, N-[3-({5-chloro-2-[(1-methyl-1H-pyrazol-4-yl)amino]pyrimidin-4-yl}oxy)-4-methoxyphenyl] prop-2-enamide] |
| 9780 | > 10000 | 2000 | > 10000 | – | C=CC(=O)Nc1cccc(F)c1CNc1nc(Nc2cnn(C)c2)ncc1Cl [Compound 173, N-(2-(((5-chloro-2-((1-methyl-1H-pyrazol-4-yl)amino)pyrimidin-4-yl)amino)methyl)-3-fluorophenyl)acrylamide] |
| > 10000 | > 10000 | > 10000 | > 10000 | – | C=CC(=O)Nc1ccc(-c2ccccc2)c(Nc2ccnc(Nc3cnn(C)c3)n2)c1 [Compound 175, N-[2-({2-[(1-methyl-1H-pyrazol-4-yl)amino]pyrimidin-4-yl}amino)-[1,1′-biphenyl]-4-yl]prop-2-enamide] |
| > 10000 | 8020 | > 10000 | > 10000 | – | CN(C)C/C=C/C(=O)Nc1ccc(-c2ccccc2)c(Nc2ccnc(Nc3cnn(C)c3)n2)c1 [Compound 176, (E)-4-(dimethylamino)-N-(2-((2-((1-methyl-1H-pyrazol-4-yl)amino)pyrimidin-4-yl)amino)-[1,1′-biphenyl]-4-yl)but-2-enamide] |
| > 10000 | > 10000 | > 10000 | > 10000 | – | C=CC(=O)Nc1ccc(-c2ccccc2)c(Nc2nc(Nc3cnn(C)c3)ncc2Cl)c1 [Compound 177, N-(2-((5-chloro-2-((1-methyl-1H-pyrazol-4-yl)amino)pyrimidin-4-yl)amino)-[1,1′-biphenyl]-4-yl)acrylamide] |
| 270 | 227 | 424 | – | 1520 | C=CC(=O)Nc1ccc(F)c(Nc2nc(Nc3cnn(C)c3)ncc2-c2cccc(Br)c2)c1 [Compound 201, N-(3-((5-(3-bromophenyl)-2-((1-methyl-1H-pyrazol-4-yl)amino)pyrimidin-4-yl)amino)-4-fluorophenyl)acrylamide] |
